{
  "source": "paper PMC11289893",
  "about": "(RSC Chemical Biology, 2024)",
  "system": "HeLa cells",
  "assay": "Cell proliferation",
  "format": "cell-based",
  "details": "tested concentrations 0 to 20 μM",
  "data": [
    {"smiles": "COC[C@H]1OC(=O)c2coc3c2[C@@]1(C)C1=C(C3=O)[C@@H]2CCC(=O)[C@@]2(C)C[C@H]1OC(C)=O", "note": "[Wortmannin]", "values": [
      {"measurement": "cytotoxicity in HeLa cells", "value": "did not observe Wortmannin cytotoxicity"}
    ]}
  ]
}
